# From patent US10072005B2, “4-azaindole derivatives” (EISAI R&D MANAGEMENT CO., LTD., priority 2013, dated 2018)
# Tests used:
# mAChR M1 = mAChR M1 (Homo sapiens, UniProt P11229); assay: In vitro cellular calcium flux assay, positive allosteric modulation of mAChR M1; type: cell-based; conditions: BHK cells expressing mAChR M1; EC20 carbachol; Examples 76-80 and 82-89 slightly modified procedure
# How it was run: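 Baby hamster kidney cells stably expressing human mAChR M1, loaded with Calcium 4 dye in HBSS/20 mM HEPES/2.5 mM probenecid for 30 min at 37 °C. An 11-point 1-in-3 compound dilution series was added and calcium rise read as fluorescence; positive allosteric modulator pEC50 and antagonist pIC50 derived.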
# mAChR M4 = mAChR M4 (Homo sapiens (Human), UniProt P08173); assay: In vitro cellular calcium flux assay, PAM, NAM and agonist modes, mAChR M4; type: cell-based
# Sequence of mAChR M4 (P08173 whole entry): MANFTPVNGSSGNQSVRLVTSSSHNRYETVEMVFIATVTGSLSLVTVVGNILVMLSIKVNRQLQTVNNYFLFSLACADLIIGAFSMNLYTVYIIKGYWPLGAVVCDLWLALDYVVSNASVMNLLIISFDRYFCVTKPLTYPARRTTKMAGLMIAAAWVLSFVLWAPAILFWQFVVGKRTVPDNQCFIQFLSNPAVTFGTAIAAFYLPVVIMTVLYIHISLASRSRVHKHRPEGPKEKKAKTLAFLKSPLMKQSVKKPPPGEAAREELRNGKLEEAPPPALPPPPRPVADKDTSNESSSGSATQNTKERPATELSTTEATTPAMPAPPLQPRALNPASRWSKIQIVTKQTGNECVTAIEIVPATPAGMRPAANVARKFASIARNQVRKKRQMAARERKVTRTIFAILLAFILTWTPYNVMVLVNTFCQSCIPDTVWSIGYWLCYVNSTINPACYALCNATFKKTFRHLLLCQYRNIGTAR
# Procedure: (§1) Baby hamster kidney cells stably expressing human or rat mAChR M1 to M5 were utilised for primary and selectivity profiling activities. mAChR M2 and M4 cell lines also stably expressed the chimeric Gαqi5 G-protein.
# (§2) Human mAChR M1, M3, M5 and rat M1 cells were grown in low glucose Dulbecco's Modified Eagle's Medium (DMEM) medium plus heat inactivated 10% fetal bovine serum (HI FBS) and 500 μg/ml hygromycin B^1. Human mAChR M2 and M4 cells were maintained as above with^2 the addition of 500 μg/ml G418 to the media. Cells were maintained in culture at 37° C./5% CO2 and passaged twice weekly by treatment with 0.05% Trypsin/EDTA detachment solution, centrifugation (200 g, 5 min) and re-suspension in fresh media. Following cell expansion, cells were cryopreserved at −80° C. by treatment with 0.05% Trypsin/EDTA detachment solution, centrifugation (200 g, 5 min) and re-suspension of the pellet in freezing media (90% HI FBS/10% DMSO^3) at 15E6 cells/ml^4.
# (§3) Prior to assaying, cells were prepared by thawing at 37° C. in a water bath, centrifugation (200 g, 5 min) and re-suspension of the pellet in fresh media. 15000 cells per well were seeded in black, clear bottomed 384-well Greiner Bio-One plates in plating medium (DMEM/10% HI FBS) and incubated overnight at 37 C/5% CO2.
# (§4) On the day of the assay, media was removed from each well and replaced with 50 μl^5 assay buffer (HBSS with 20 mM HEPES and 2.5 mM Probenecid) containing the calcium indicator, Calcium 4 (Molecular Devices). Cells were then incubated at 37° C./5% CO2 for 30 min and at room temperature.
# (§5) Compound preparation was carried out by generation of 11-point, 1 in 3 serial dilution concentration response curves in 100% DMSO. Compound was then diluted 1 in 65^6 with assay buffer (HBSS with 20 mM HEPES and 2.5 mM Probenecid) prior to the addition of 10 ul^7 to the cells using a Tetra fluorometric imaging plate reader (Molecular Devices)^8. Compound driven increases in intracellular calcium flux was measured as an increase in fluorescence (494Ex, 516Em)^9.
# (§6) Positive allosteric modulator pEC50 values and antagonist pIC50 values for each compound were then determined. […] The points of modification and the alternate reagents, concentrations or equipment employed in these examples were: ^1200 μg/ml hygromycin B; ^2G418 not added; ^3CELLBANKER 1; ^410E6; ^5 40 μl; ^6 1 in 99; ^7 20 μl; ^8FDSS6000 (Hamamatsu Photonics); ^9(480Ex, 540Em); ^10Spotfire (TIBCO).
# (§7) Certain compounds were tested in PAM, NAM and agonist modes against mAChR M2, M3, M4 and M5.
# mAChR M5 = mAChR M5 (Homo sapiens (Human), UniProt P08912); assay: In vitro cellular calcium flux assay, PAM, NAM and agonist modes, mAChR M5; type: cell-based
# Sequence of mAChR M5 (P08912 whole entry): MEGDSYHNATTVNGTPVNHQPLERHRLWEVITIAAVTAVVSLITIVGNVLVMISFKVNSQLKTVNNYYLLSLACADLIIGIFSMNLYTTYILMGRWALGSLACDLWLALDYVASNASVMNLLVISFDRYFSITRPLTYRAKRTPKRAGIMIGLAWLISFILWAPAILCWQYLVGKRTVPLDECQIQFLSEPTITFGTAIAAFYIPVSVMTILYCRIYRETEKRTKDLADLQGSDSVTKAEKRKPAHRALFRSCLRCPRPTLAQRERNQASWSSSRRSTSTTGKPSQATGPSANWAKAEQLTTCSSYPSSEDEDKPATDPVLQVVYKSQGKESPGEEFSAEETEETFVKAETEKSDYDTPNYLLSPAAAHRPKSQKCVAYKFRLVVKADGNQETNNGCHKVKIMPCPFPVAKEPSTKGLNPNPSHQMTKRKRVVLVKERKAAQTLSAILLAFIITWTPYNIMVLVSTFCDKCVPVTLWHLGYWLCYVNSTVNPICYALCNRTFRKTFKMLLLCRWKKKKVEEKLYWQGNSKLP
# Procedure: as §1, §2, §3, §4, §5, §6, §7
# male Crlj: WI rats = assay: Morris Water Maze Test in Ibotenic Acid-Induced Learning Disability Model; type: in vivo, rat; conditions: for Swimming time in 4th quadrant / Frequency of entry into platform area: probe trial
# Procedure: Ibotenic acid at 5 μg/0.5 μL was injected into both basal nuclei of 8-week old male Crlj: WI rats, and a Morris water maze test was performed 10-14 days after ibotenic acid injection. It has been reported that rats in which basal forebrain was lesioned by ibotenic acid injection show learning disability in the Morris water maze test. (Pharmacopsychiat, 1999, 32, 242-247). The test is considered a model of spatial learning and memory.
# Learning trials were performed twice a day at an interval of 3 hours for 4 days (8 times in total), and probe trials were performed once the day after completion of the learning trials. Each test compound was dissolved in a 0.5% methylcellulose in water and orally administered 1 hour before the first trial on each day of the learning trials and 1 hour before the trial on the day of the probe trials.
# A colorless clear acrylic platform (diameter: about 12 cm, height: about 30 cm) and a gray vinyl chloride circular pool (diameter: about 148 cm, height: about 44 cm), which was filled with water (temperature: 17-18° C.) up to a height of about 32 cm so that the platform was fully immersed in water, were used as the test device. Four quadrants were prepared at the bottom of the pool, and the platform was set at the center of 1 of the 4 quadrants (about 37 cm from the center of the pool). A light bulb was placed near the quadrant with the platform as a spatial cue.
# In learning trials, the animal was put into water and goal latency and swimming distance to reach the platform were measured (measurement time: 90 seconds at the longest) by a video image behavioral analysis device (Etho Vision XT, Noldus Information Technology Inc.). When an animal reached the platform within 90 seconds and stayed on the platform for 30 seconds, it was judged that the animal recognized the position of the platform, and the measurement was finished.
# In probe trials, the platform was removed from the pool. The animal was put into water, and the swimming time in the quadrant where the platform had been located in the learning trials and the frequency of entry into the platform area where the platform had been located in the learning trials were measured by Etho Vision XT.
# Each value was shown as an average and a standard error (n=10). The statistical significance between a control group and a vehicle group was analyzed by the independent t-test. The statistical significance between the vehicle group and each sample group was analyzed by one-way analysis of variance and then by Dunnett's multiple comparison test. The significance level was set to 5% on both sides. […] The analysis was carried out by using SAS system (SAS Institute Japan Ltd.).
# Sequence of mAChR M1 (P11229 whole entry, looked up): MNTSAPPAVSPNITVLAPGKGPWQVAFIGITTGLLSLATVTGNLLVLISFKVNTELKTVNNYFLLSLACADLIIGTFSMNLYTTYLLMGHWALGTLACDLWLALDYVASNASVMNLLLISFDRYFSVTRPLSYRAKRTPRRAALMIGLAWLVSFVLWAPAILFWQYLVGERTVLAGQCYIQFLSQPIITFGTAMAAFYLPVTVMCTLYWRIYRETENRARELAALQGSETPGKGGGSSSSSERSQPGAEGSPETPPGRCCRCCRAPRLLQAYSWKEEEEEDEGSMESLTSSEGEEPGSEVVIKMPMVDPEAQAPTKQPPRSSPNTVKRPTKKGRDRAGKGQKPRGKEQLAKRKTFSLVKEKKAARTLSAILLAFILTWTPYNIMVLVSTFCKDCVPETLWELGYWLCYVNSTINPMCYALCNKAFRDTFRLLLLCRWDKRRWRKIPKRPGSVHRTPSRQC
compound,measurement,setting,value
"O=C(N[C@H]1CCCC[C@@H]1O)c1cn(Cc2ccc(F)cc2)c2cccnc12 [Example 5, 1-(4-Fluorobenzyl)-N-((1S,2S)-2-hydroxycyclohexyl)-1H-pyrrolo[3,2-b]pyridine-3-carboxamide]",pEC50 for positive allosteric modulation,mAChR M1,6.9
same,EC50,mAChR M4,> 10 µM
same,EC50,mAChR M5,> 10 µM
same,Goal latency,"male Crlj: WI rats; Trial 1, 0.1 mg/kg p.o.",[90 ± 0.00] sec.
same,Swimming distance,"male Crlj: WI rats; Trial 1, 0.1 mg/kg p.o.",[2152.96 ± 91.73] cm
same,Goal latency,"male Crlj: WI rats; Trial 1, 0.3 mg/kg p.o.",[90 ± 0.00] sec.
same,Swimming distance,"male Crlj: WI rats; Trial 1, 0.3 mg/kg p.o.",[2400.75 ± 122.49] cm
same,Goal latency,"male Crlj: WI rats; Trial 2, 0.1 mg/kg p.o.",[90 ± 0.00] sec.
same,Swimming distance,"male Crlj: WI rats; Trial 2, 0.1 mg/kg p.o.",[2353.99 ± 145.71] cm
same,Goal latency,"male Crlj: WI rats; Trial 2, 0.3 mg/kg p.o.",[89.47 ± 0.53] sec.
same,Swimming distance,"male Crlj: WI rats; Trial 2, 0.3 mg/kg p.o.",[2533.19 ± 86.87] cm
same,Goal latency,"male Crlj: WI rats; Trial 3, 0.1 mg/kg p.o.",[78.81 ± 8.1] sec.
same,Swimming distance,"male Crlj: WI rats; Trial 3, 0.1 mg/kg p.o.",[1884.79 ± 174.8] cm
same,Goal latency,"male Crlj: WI rats; Trial 3, 0.3 mg/kg p.o.",[75.08 ± 7.99] sec.
same,Swimming distance,"male Crlj: WI rats; Trial 3, 0.3 mg/kg p.o.",[1945.42 ± 189.94] cm
same,Goal latency,"male Crlj: WI rats; Trial 4, 0.1 mg/kg p.o.",[79.59 ± 7.36] sec.
same,Swimming distance,"male Crlj: WI rats; Trial 4, 0.1 mg/kg p.o.",[1822.32 ± 206.29] cm
same,Goal latency,"male Crlj: WI rats; Trial 4, 0.3 mg/kg p.o.",[60.53 ± 12.15]# sec.
same,Swimming distance,"male Crlj: WI rats; Trial 4, 0.3 mg/kg p.o.",[1592.82 ± 308.21] cm
same,Goal latency,"male Crlj: WI rats; Trial 5, 0.1 mg/kg p.o.",[83.06 ± 4.7] sec.
same,Swimming distance,"male Crlj: WI rats; Trial 5, 0.1 mg/kg p.o.",[1918.78 ± 132.12] cm
same,Goal latency,"male Crlj: WI rats; Trial 5, 0.3 mg/kg p.o.",[53.99 ± 10.18]## sec.
same,Swimming distance,"male Crlj: WI rats; Trial 5, 0.3 mg/kg p.o.",[1417.94 ± 229.44]## cm
same,Goal latency,"male Crlj: WI rats; Trial 6, 0.1 mg/kg p.o.",[66.13 ± 12.22] sec.
same,Swimming distance,"male Crlj: WI rats; Trial 6, 0.1 mg/kg p.o.",[1464.97 ± 308.91] cm
same,Goal latency,"male Crlj: WI rats; Trial 6, 0.3 mg/kg p.o.",[33.09 ± 9.78]## sec.
same,Swimming distance,"male Crlj: WI rats; Trial 6, 0.3 mg/kg p.o.",[876.2 ± 203.14]## cm
same,Goal latency,"male Crlj: WI rats; Trial 7, 0.1 mg/kg p.o.",[76.97 ± 8.11] sec.
same,Swimming distance,"male Crlj: WI rats; Trial 7, 0.1 mg/kg p.o.",[1839.16 ± 221.78] cm
same,Goal latency,"male Crlj: WI rats; Trial 7, 0.3 mg/kg p.o.",[50.1 ± 10.02]## sec.
same,Swimming distance,"male Crlj: WI rats; Trial 7, 0.3 mg/kg p.o.",[1329.27 ± 236.21]## cm
same,Goal latency,"male Crlj: WI rats; Trial 8, 0.1 mg/kg p.o.",[67.24 ± 10.13] sec.
same,Swimming distance,"male Crlj: WI rats; Trial 8, 0.1 mg/kg p.o.",[1492.52 ± 260.05] cm
same,Goal latency,"male Crlj: WI rats; Trial 8, 0.3 mg/kg p.o.",[38.02 ± 10.74]## sec.
same,Swimming distance,"male Crlj: WI rats; Trial 8, 0.3 mg/kg p.o.",[1020.57 ± 253.94]## cm
same,Swimming time in 4th quadrant,"male Crlj: WI rats; 0-30 sec., 0.1 mg/kg p.o.",[8.90 ± 1.02]# sec.
same,Swimming time in 4th quadrant,"male Crlj: WI rats; 0-30 sec., 0.3 mg/kg p.o.",[7.19 ± 1.11] sec.
same,Frequency of entry into platform area,male Crlj: WI rats; 0.1 mg/kg p.o.,[0.9 ± 0.3]
same,Frequency of entry into platform area,male Crlj: WI rats; 0.3 mg/kg p.o.,[1.7 ± 0.5]##
same,Swimming time in 4th quadrant,"male Crlj: WI rats; 30-60 sec., 0.1 mg/kg p.o.",[9.41 ± 1.80]# sec.
same,Swimming time in 4th quadrant,"male Crlj: WI rats; 30-60 sec., 0.3 mg/kg p.o.",[8.48 ± 1.25] sec.
same,Swimming time in 4th quadrant,"male Crlj: WI rats; 60-90 sec., 0.1 mg/kg p.o.",[7.74 ± 0.85] sec.
same,Swimming time in 4th quadrant,"male Crlj: WI rats; 60-90 sec., 0.3 mg/kg p.o.",[7.49 ± 1.37] sec.
same,Swimming time in 4th quadrant,"male Crlj: WI rats; Total, 0.1 mg/kg p.o.",[26.05 ± 2.03]## sec.
same,Swimming time in 4th quadrant,"male Crlj: WI rats; Total, 0.3 mg/kg p.o.",[23.16 ± 2.97] sec.
